Results: patent US4772459A, “Method for controlling emesis caused by chemotherapeutic agents and antiemetic agents useful therein” (priority 1986, dated 1988)
Counter-ions that a name gives are not always drawn.

Tests used:
striatal DOPAC = assay: Dopamine Turnover: striatal DOPAC response; format: in vivo, Sprague Dawley rats (male); conditions: rat; for Response of striatal DOPAC, percent change from control: intravenous
Protocol: Male Sprague Dawley rats were injected intravenously with various doses of test compound and whole brain was removed at a predetermined time after dosing. The striatum was dissected from the brain, homogenized in a buffer/organic solvent mixture, clarified with a centrifuge, and an aliquot of the supernatant analyzed for 3,4-dihydroxyphenylacetic acid (DOPAC) by high performance liquid chromatography coupled with an electrochemical detector. The results are expressed as the percent change from control. The standard deviation of the data generally required a difference of 18% from control to be statistically significant at the 0.05 level as determined by the Student's "t" test. DOPAC is a metabolite of dopamine.

Cisplatin Emesis = format: in vivo, Beagle dogs; conditions: for ED50: Canis lupus familiaris, iv, dog, drug i.v. 30 min before and 120 min after 3 mg/kg cisplatin i.v., blocked if 2 or less emetic events in 5 h
Protocol: Mature Beagle dogs of either sex, weighing 7-16 kg, were individually caged with water available ad libitum. Each animal was offered 300 g of Purina Dog Chow the day of an experiment. Drug in varying doses or carrier was administered intravenously 30 minutes before and 120 minutes after intravenous bolus administration of 3 mg/kg cisplatin (Ben Venue Laboratories, Inc., Bedford, Ohio). […] Emesis was considered blocked if the animal suffered 2 or less emetic events. Based upon these observations, ED50 values were determined for each of the compounds tested.

Apomorphine Climbing = format: in vivo, ICR-Swiss mice (male); conditions: for ED50: ip, 0.5 h, mouse, dose yielding climbing index of 100, apomorphine HCl 1 mg/kg s.c. 30 min after drug, read-out: Apomorphine Climbing 50% ED
Protocol: Male ICR-Swiss mice (Harlan Industries, Indianapolis, Ind.), weighing 25-29 g, were placed in 8×10×16 cm wire cages. After a 1 to 1.5 hour acclimatization period, drug or carrier was administered intraperitoneally. Apomorphine hydrochloride (Lilly; 1 mg/kg) or carrier (saline, 10.0 ml/kg) was administered subcutaneously 30 minutes after test compound administration. Climbing behavior was assessed 20 minutes after apomorphine injection using the following scoring system:
(0) 4 paws on the floor of the cage
(1) 1, 2, or 3 paws grasping a side of the cage
(2) 4 paws grasping a side of the cage.
Climbing indexes were calculated using the formula: [formula] 50% ED values (i.e., the dose of drug which yields a climbing index of 100) were calculated using regression equations.

Catalepsy = format: in vivo, Sprague Dawley rats (female); conditions: 20 mg/kg i.v., rat, tested one and two hours later
Protocol: Female Sprague Dawley rats (Harlen Industries, Indianapolis, Ind.), weighing 160-225 g, were used. The animals (n=6) were injected intravenously with drug (20 mg/kg) or carrier (saline; 2 ml/kg) and were tested one and two hours later. This involved placing the front paws of the rat on a horizontal metal bar suspended 10 cm above the table top and recording the number of seconds, to a maximum of 60, that the animal remains in this position. Each animal was tested three times in succession and the average time the animal remained on the bar was calculated. Student's non-paired "t" test was employed to determine the significance of differences between the control and treated groups.

Dacarbazine Emesis = format: in vivo, beagle dogs; conditions: 1.0 mg/kg IV × 2, dog; dacarbazine 10 mg/kg i.v.; protected if 2 or less emetic events in 5 h
Protocol: Mature beagle dogs (7-16 kg) were used in these experiments. The animals were individually caged with water available ad libitum. Each dog was offered 300 g of Purina Dog Chow the day of an experiment. Drug (mg base/kg) or carrier (0.9% saline; 0.2 ml/kg) was administered intravenously 30 minutes before and 120 minutes after intravenous bolus administration of 10 mg/kg dacarbazine (10 mg DTIC/ml saline; Miles Pharmaceuticals). […] If the animal suffered 2 or less emetic events, the animal was considered protected.

Apomorphine Emesis = format: in vivo, beagle dogs; conditions: dog, apomorphine HCl 0.1 mg/kg s.c., protected if no emetic events in 1 h
Protocol: Mature beagle dogs, individually caged and weighing 10.6-14.5 kg, were used in these experiments. The animals were fed just before being dosed intravenously with drug (mg base/kg) or carrier (0.9% saline; 0.2 ml/kg). Each animal received 0.1 mg/kg apomorphine hydrochloride (1 mg/ml saline; Lilly) subcutaneously thirty minutes after administration of the test compound. […] If the animal had no emetic events, the animal was considered protected.

[1] = very high dosages, beginning prior to cisplatin and continuing through post administration; cited from earlier work

SMILES | Response of striatal DOPAC, percent change from control (striatal DOPAC; 0.3 mg/kg) | Response of striatal DOPAC, percent change from control (striatal DOPAC; 1.0 mg/kg) | Response of striatal DOPAC, percent change from control (striatal DOPAC; 3.3 mg/kg) | Response of striatal DOPAC, percent change from control (striatal DOPAC; 10 mg/kg) | Response of striatal DOPAC, percent change from control (striatal DOPAC; 33 mg/kg) | ED50 (Cisplatin Emesis) | ED50 (Apomorphine Climbing) | Catalepsy (Catalepsy; hydrochloride) | Dacarbazine-induced emesis: Number Protected/Number Dosed (Dacarbazine Emesis) | Apomorphine-induced emesis: Number Protected/Number Dosed (Apomorphine Emesis; 1.0 mg/kg IV) | Apomorphine-induced emesis: Number Protected/Number Dosed (Apomorphine Emesis; 2.0 mg/kg IV) | Apomorphine-induced emesis: Number Protected/Number Dosed (Apomorphine Emesis; 4.0 mg/kg IV) | Catalepsy (Catalepsy) | Response of striatal DOPAC, percent change from control (striatal DOPAC; 0.1 mg/kg) | dopamine antagonism suggested by Table 1 (in words) (striatal DOPAC; striatal DOPAC, i.v.) | cisplatin antiemetic activity (in words) (Cisplatin Emesis; data in Table 2) | dopamine antagonist activity from Table 2 (in words) (Apomorphine Climbing; apomorphine climbing and catalepsy data) | Apomorphine-induced emesis: Number Protected/Number Dosed (Apomorphine Emesis; 0.125 mg/kg IV) | effect on emesis caused by cisplatin (in words) [1]
O=C(NC[C@@H]1CCCN1)c1cc(Cl)cc2c1OCC2 [Compound 1, (L)-5-chloro-N--(2-pyrrolidinylmethyl)-2,3-dihydrobenzo[b]furan-7-carboxamide hydrochloride] | -11.6% | -0.6% | -2.5% | 91.8% | 255.4% | 0.6 mg/kg | 36.2 mg/kg | No | 4/4 | 0/2 | 2/2 | – | – | – | – | – | – | – | –
Nc1cc2c(c(C(=O)NC[C@@H]3CCCN3)c1)OCC2 [Compound 2, (L)-5-amino-N--(2-pyrrolidinylmethyl)-2,3-dihydrobenzo[b]furan-7-carboxamide hydrochloride] | 0.0% | -6.5% | -17.3% | 0.0% | -10.7% | ~1.75 mg/kg | 100 mg/kg | No | 4/4 | – | – | 0/4 | – | – | – | – | – | – | –
Nc1c(Cl)cc(C(=O)NC[C@@H]2CCCN2)c2c1CCO2 [Compound 3, (L)-4-amino-5-chloro-N--(2-pyrrolidinylmethyl)-2,3-dihydrobenzo[b]furan-7-carboxamide hydrochloride] | -14.4% | -10.0% | -6.2% | -2.7% | 6.4% | ~0.42 mg/kg | 75 mg/kg | No | 4/4 | 0/4 | 0/4 | 0/4 | – | – | – | – | – | – | –
COc1cc(N)c(Cl)cc1C(=O)NC[C@@H]1CCCN1 [Compound 4, (L)-4-amino-5-chloro-2-methoxy-N--(2-pyrrolidinylmethyl)benzamide hydrochloride] | -1.9% | -3.3% | -3.7% | 13.7% | 41.6% | 1 mg/kg | 44.5 mg/kg | No | – | 0/4 | – | – | – | – | – | – | – | – | –
CCN1CCCC1CNC(=O)c1cc(Cl)cc2c1OCC2 (centres unmarked) [Compound C-1, 5-chloro-N--(1-ethyl-2-pyrrolidinylmethyl)-2,3-dihydrobenzo[b]furan-7-carboxamide hydrochloride] | – | – | – | – | – | 1 mg/kg | 0.91 mg/kg | – | – | – | – | – | Yes | – | – | – | – | – | –
CCN1CCCC1CNC(=O)c1cc(N)cc2c1OCC2 (centres unmarked) [Compound C-2, 5-amino-N--(1-ethyl-2-pyrrolidinylmethyl)-2,3-dihydrobenzo[b]furan-7-carboxamide hydrochloride] | – | – | – | – | – | 2.5 mg/kg | 10.4 mg/kg | – | – | – | – | – | No | – | – | – | – | – | –
CCN1CCCC1CNC(=O)c1cc(Cl)c(N)c2c1OCC2 (centres unmarked) [Compound C-3, 4-amino-5-chloro-N--(1-ethyl-2-pyrrolidinylmethyl)-2,3-dihydrobenzo[b]furan-7-carboxamide fumarate] | – | – | – | – | – | 0.7 mg/kg | 1.5 mg/kg | – | – | – | – | – | Yes | – | – | – | – | – | –
CCN1CCCC1CNC(=O)c1cc(Cl)c(N)cc1OC (centres unmarked) [Compound C-4, 4-amino-5-chloro-2-methoxy-N--(1-ethyl-2-pyrrolidinylmethyl)benzamide] | – | – | – | – | – | 1 mg/kg | 0.44 mg/kg | – | – | – | – | – | Yes | – | – | – | – | – | –
CCN(CC)CCNC(=O)c1cc(Cl)c(N)cc1OC [Metoclopramide, metoclopramide, reference compound] | 12.4% | 81.2% | 192.0% | 384.6% | – | 1.1 mg/kg | 1.7 mg/kg | – | 3/4 | 4/4 | – | – | – | 1.2% | exhibits strong dopamine antagonism at doses of 1.0 mg/kg and greater | effective antiemetics | strong dopamine antagonists | 2/4 | effective in alleviating emesis caused by cisplatin
